Usually IC50 stands for the concentration at which inhibition is half-maximal. In general, inhibition refers to the drop in the measured response relative to a control, in per cent. Broadly, the solubility is the dissolved amount per volume that the medium holds. Usually Tmax stands for the time from dosing to the highest level. As a reminder, the AUC(0-inf) is the area under the concentration-time curve extrapolated to infinity. Low values mean less exposure, high ones more exposure. A word on the bioavailability: it is dose-corrected exposure relative to a reference, in per cent. One may read the melting point as the temperature of the solid-liquid transition.

Where two headings read alike, the source gives them in different places.

The subject of series [1] is LPS-induced TNFα production in mouse peritoneal macrophages. Nature of the series: LPS-induced TNFα production in mouse peritoneal macrophages (ELISA). Format: cell-based. The following applies: for IC50: mouse peritoneal macrophages, 100 ng/ml LPS 24 h, measured twice, mean ± standard deviation, read-out: IC50, dose-dependent inhibition of TNFα production in macrophages. Here is the method:
To isolate peritoneal macrophages, male Balb/c mice were intraperitoneally injected with 2 ml of 3.5% sterile thioglycolate (B D, Sparks, Md., USA) 4 days before being sacrificed. Mice were sacrificed by cervical dislocation, and peritoneal secretory cells were aseptically isolated through peritoneal washing with cold DMEM (HyClone, Logan, Utah, USA) containing 10% FBS (fetal bovine serum; HyClone) and 1% penicillin-streptomycin. After centrifugation, cells were resuspended and counted using a TC20 Cell Counter (Bio-Rad Laboratories, Hercules, Calif., USA). Peritoneal secretory cells were left in a 24-well plate overnight at 37° C., and non-adherent cells were removed. The cells were then stimulated with 100 ng/ml lipopolysaccharide (LPS) for 24 hours. The supernatant was collected during cytokine analysis, and the level of TNFα in the supernatant was measured using BD OptEIA mouse ELISA sets (BD Biosciences, San Diego, Calif., USA) according to the manufacturer's protocol. […] IC50 (μM) values were measured twice, respectively, and expressed as mean±standard deviation.

Series [2] can be described thus: Physicochemical properties (pKa, logP, solubility). The source says: Compound 1 is butein and the therapeutic effect on lymphedema thereof is disclosed in Korean Patent Publication No. 10-1533197 (published on Jul. 2, 2015).
Series [3] can be described thus: Pharmacokinetic analysis in mice after I.V. and oral administration. Format: in vivo, mouse. The following applies: for Cmax: read-out: Cmax (maximum plasma concentration). How it is done:
Compounds were administered to 5-week-old male CD-1 mice through 1 mg/kg tail vein administration (administration volume of 5 mL/kg), 20 mg/kg oral administration, and 100 mg/kg oral administration, respectively. Three mice were used for each independent experiment. Blood samples were taken in an amount of 20 μL to 30 μL via the saphenous vein at 5, 15, 30, 60, 120, 180, 360, and 1440 minutes.
In addition, pharmacokinetic parameters were calculated from non-compartmental analysis using Win Non-lin.
In Table 3, T1/2 denotes the terminal half-life, Cmax denotes the maximum plasma concentration, AUC-O denotes the area under the plasma concentration-time curve from time zero to infinity, and indicates exposure concentration of whole blood, and BA represents bioavailability expressed as (AUCpo/AUCiv)×100. […] Cmax and AUC∞ are mean±SD values obtained from three male ICR mice. Regarding blood exposure during systemic circulation of the compound, the compound was orally administered at an amount of 100 mg/kg, and then, AUC (area under the curve) was measured, and the obtained measurements were compared.

In series [4] the test system is lymphedema induced in mice. Kind of series: Prophylactic effect on lymphedema formation, surgically induced murine lymphedema model (volume). Type of series: in vivo, mouse. The following applies: 7th day after surgery, oral administration 7 days before surgery, then once every two days, vs control group. How it is done: All animal tests in the following examples were performed after obtaining approvals by the Institutional Animal Care and Use Committee (IACUC) of Sungkyunkwan University School of Medicine (Approval No.: […]-20150037). All methods were performed according to the approved guidelines. […] Briefly, major lymphatic sites including inguinal lymph nodes, popliteal lymph nodes, deep inguinal lymph nodes and femoral lymphatic vessels were removed, and the lower right leg of the mouse was limitedly cauterized under anesthesia.
Compounds 1, 7m, and 14a were each orally administered to mice for 7 days before surgical induction of lymphedema in mice.
On the other hand, in the control group, the compound 1 treatment group, the compound 7m treatment group, and the compound 14a treatment group, lymphedema was induced through surgery. After surgery, the compounds were administered once every two days.
The volume of lymphedema was measured on the 7th day after surgery, and the size of the lymphedema was recorded using a caliper ruler by a person who was blinded to the treatment status of the mice.

Another series concerns lymphedema tissue. Kind of series: Histological (H&E) analysis of lymphedema tissue of the right hind leg. Type of series: in vivo. The following applies: 7th day after surgery, right hind leg of mouse. The source says:
(§1) Tissue samples were collected on the 7th day after surgery to induce lymphedema at a location 15 mm-25 mm from the right leg of the mouse. The harvested tissue samples were fixed with 10% formalin solution, and the specimens were cut to a thickness of 5 μm. Sections were deparaffinized in 100% xylene, rehydrated with a series of 100% ethanol, 95% ethanol, 90% ethanol, 80% ethanol, and 70% ethanol, and washed with water. Sections were reacted with hematoxylin solution at room temperature. After washing in PBS, sections were stained with eosin at room temperature. Images were acquired by a Pannoramic viewer microscope (3[…] Ltd., Hungary). Prepared slides were incubated using anti-mouse PPARγ (Santa Cruz Biotechnology, USA) and Alexa Fluor 488 and DAPI (Life Technologies, USA). Samples were analyzed using a Nikon ECLIPSE 80i microscope (Nikon Instruments Inc., Japan).
In FIG. 3A, the scale bar of the upper panel is 500 μm, and the scale bar of the lower panel is 100 μm.
In FIG. 4A, the scale bar of the upper panel is 200 μm, and the scale bar of the lower panel is 100 μm.

The next series relates to TNFα. Kind of series: mRNA expression of TNFα in lymphedema tissue. Type of series: in vivo. The following applies: 7th day after surgery, mouse. The source says:
As a result, it was confirmed that the expression level of TNFα mRNA was decreased in the compound 1 treatment group and the compound 14a treatment group (with respect to the control group, *: P<0.05; with respect to compound 1, #: P<0.05).

The test system of a further series is PPARγ. Nature of the series: Immunofluorescence staining of PPARγ in epidermal layer of lymphedema tissue. Format: in vivo. The following applies: mouse.
From the text: as §1
In addition, peroxisome […] (PPARγ) is a major regulator of lipogenesis, and as shown in FIG. 4B showing the results of immunofluorescence staining, the distribution of PPARγ in the epidermal layer of lymphedema tissue after treatment with compound 1 and compound 14a was suppressed.

Series [5] deals with PPARγ and a target protein Fabp4. Nature of the series: Expression of PPARγ and Fabp4 in lymphedema tissue (western blot, mRNA). Type of series: in vivo. The conditions noted are these: mouse; for levels of PPARγ and Fabp4 mRNA (FIG. 4D): lymphedema tissue. A general note: A western blot detects proteins with antibodies after separation by electrophoresis.
The mark [6] stands for this setting: Mus musculus, Peritoneal macrophage, 24 h.
Where [7] appears, read: water solubility, read-out: Solubility.
[8] abbreviates: P.O, 100 mg/Kg, male CD-1 mice, (AUCpo/AUCiv)×100.
[9] abbreviates: mouse, plasma, iv, I.V, 1 mg/Kg, male CD-1 mice.
[10] abbreviates: mouse, plasma, po, P.O, 20 mg/Kg, male CD-1 mice.

On to `O=C(/C=C/c1ccc(O)c(O)c1)c1ccc(O)cc1O` [compound 1, (E)-1-(2,4-dihydroxyphenyl)-3-(3,4-dihydroxyphenyl)prop-2-en-1-one, reference compound], for which the values for the IC50 in series [1] (setting [6]) and in [1] were 43 µM and 43.3 ± 1.72 µM, respectively. Moreover, the inhibition at 20 µM in series [1] (Mus musculus, Peritoneal macrophage, treated in vitro at 20 μM, read-out: efficacy (inhibition)) is 10%. Moreover, the “logP (partition coefficient)” value in series [2] is on record as 0.42. The solubility came to 21 µg/mL in [2] (setting [7]) and 79 µM in [2] (water, read-out: water solubility). Moreover, the “Cmax (maximum plasma concentration)” value in series [3] (I.V, 1 mg/Kg, male CD-1 mice) is 41 ng/mL. The Tmax in series [3] (I.V, 1 mg/Kg, male CD-1 mice) is 6 min; in [3] (P.O, 20 mg/Kg, male CD-1 mice), 18 min; in series [3] (P.O, 100 mg/Kg, male CD-1 mice) it was 18 min. Further, the “BA (bioavailability)” value in series [3] (P.O, 20 mg/Kg, male CD-1 mice, (AUCpo/AUCiv)×100) is given as 15%; in series [3] (setting [8]) it was 37%. In series [3] (mice), the “terminal half-life” value was “too short terminal half-life”. Moreover, the AUC(0-inf) in [3] (setting [9]) amounted to 6.7 ng·h/mL; in series [3] (setting [10]), 21 ng·h/mL. Further, the Cmax in series [3] (setting [10]) turned out to be 43 ng/mL; in series [3] (mouse, plasma, po, P.O, 100 mg/Kg, male CD-1 mice), 601 ng/mL. Also, in [4], the “volume of lymphedema reduced by” value was 52%. Further, the “development of adipose tissue in the epidermal layer (H&E, FIG. 4A)” value in the series with lymphedema tissue is listed as “inhibiting the development of adipose tissue in the epidermal layer”. Also, the “expression level of TNFα mRNA in lymphedema tissue (FIG. 3B)” value in the series on TNFα is given as “decreased”. Moreover, the “distribution of PPARγ in the epidermal layer of lymphedema tissue (FIG. 4B)” value with PPARγ is recorded as “suppressed”. Also, in series [5], the “levels of PPARγ and Fabp4 mRNA (FIG. 4D)” value was “superior efficacy compared to the control group”. The “expression of PPARγ and Fabp4 in lymphedema tissue (western blot, FIG. 4C)” value in series [5] is recorded as “reduced the expression of PPARγ”.

`O=C(Oc1cc(O)ccc1C(=O)/C=C/c1ccc(O)c(O)c1)c1ccccc1` [compound 14a, (E)-2-(3-(3,4-dihydroxyphenyl)acryloyl)-5-hydroxyphenyl benzoate]: the melting point was determined as 204.9 °C. Also, the IC50 in series [1] (setting [6]) was 14.6 ± 1.56 µM. The “logP (partition coefficient)” value in [2] is reported as 3.47. For the same molecule, the solubility in series [2] (setting [7]) came to 136 µg/mL. In addition, in [3] (I.V, 1 mg/Kg, male CD-1 mice), the “T1/2 (terminal half-life)” value worked out at 81.6 min and the Tmax is 12 min. In addition, in [3] (P.O, 20 mg/Kg, male CD-1 mice), the “T1/2 (terminal half-life)” value came to 34.2 min and the time of peak concentration (Tmax) worked out at 24 min. In series [3] (P.O, 100 mg/Kg, male CD-1 mice), the “Cmax (maximum plasma concentration)” value came to 1600 ng/mL, the “T1/2 (terminal half-life)” value amounted to 21 min and the Tmax came out at 24 min. Moreover, in series [3] (setting [8]), the “BA (bioavailability)” value worked out at 7.5%. In [3] (setting [9]), the AUC(0-inf) was determined as 163 ng·h/mL and the Cmax turned out to be 110 ng/mL. In series [3] (setting [10]), the AUC(0-inf) was found to be 141 ng·h/mL and the Cmax stood at 83 ng/mL. Also, the bioavailability in [3] (mouse, plasma, po, P.O, 20 mg/Kg, male CD-1 mice, (AUCpo/AUCiv)×100, read-out: BA (bioavailability)) came out at 4%. In addition, in series [4], the “volume of lymphedema reduced by” value is given as 70%. Besides, in the series with lymphedema tissue, the “development of adipose tissue in the epidermal layer (H&E, FIG. 4A)” value is “inhibiting the development of adipose tissue in the epidermal layer”; the “neutrophil infiltration and epidermal layer of lymphedema tissue (H&E, FIG. 3A)” value is “decreased neutrophil infiltration and ameliorated the epidermal layer of lymphedema tissue”. Further, the “expression level of TNFα mRNA in lymphedema tissue (FIG. 3B)” value with TNFα is “decreased”. In addition, in the series on PPARγ, the “distribution of PPARγ in the epidermal layer of lymphedema tissue (FIG. 4B)” value was “suppressed”. In addition, in [5], the “levels of PPARγ and Fabp4 mRNA (FIG. 4D)” value is on record as “more significant efficacy even compared to compound 1”; the “expression of PPARγ and Fabp4 in lymphedema tissue (western blot, FIG. 4C)” value is listed as “reduced the expression of PPARγ”.

Values taken from US20230099567A1, “COMPOSITION FOR TREATMENT, PREVENTION, OR AMELIORATION OF LYMPHEDEMA” (RAPPELER CO., LTD., priority 2020, published 2023).
